Structures can show the parent of a compound that is named as a salt.
How the values were obtained:
glycosidase = experiment: Glycosidase inhibition, overall statement; assay type: biochemical
Procedure: Compounds 6, 11 and 12 in Table 1 were screened at a single dose (100 micromolar) against sucrase and maltase, two glycosidase enzymes. In addition compounds 1 and 2 were screened at a dose of 1 mM. These compounds are described in Examples 6, 81 10, 11 and 12. […] Compounds 1, 2, 6 and 12 are novel compounds having glucitol stereochemistry. Compound 11 is likewise novel and it has the iditol stereochemistry.
(§1) The inhibition of maltase (sucrase) tests was carried out as recited hereinafter. Partially purified α-glycosidase was isolated from the rabbit's small intestine as described in the literature (B. L. Rhinehart et al. Life Sci. 1987, 41, 2325). The α-glycosidase activity was measured using […] as substrates. β-Glycosidase from almonds was obtained from Sigma (St. Louis), and β-glycosidase activity was measured using lactose as a substrate. The incubation mixture (200 μL) consisted of substrate (100 mM), enzyme, 100 mM NaCl, 0.1 mM Na2 EDTA and either 10 mM MOPS (for pH 7), 10 mM maleic acid (for pH 6), or 10 Mm acetate (for pH 5) as buffer (adjusted to their respective pH with NaOH). Compounds dissolved in dimethylsulfoxide were added (final concentration of dimethylsulfoxide in the assay was 1%). The assay was performed at 37 deg C. for 30 minutes and arrested by incubation for 3 min at 85 deg C. After centrifugation for 2 min at 10,000 g, the supernatant was collected and processed for glucose determination. Glucose was measured with the hexokinase method (kit obtained from Boehringer Mannheim) on an EPOS 5060 EPPENDORF autoanalyser.

Maltase = experiment: Inhibition of maltase (α-glycosidase, maltose-cleaving activity); assay type: biochemical, rabbit; settings: for Inh. of Maltase: at 100 µM (Table 1 head)
Procedure: […] In addition compounds 1 and 2 were screened at a dose of 1 mM. These compounds are described in Examples 6, 81 10, 11 and 12. […] Compounds 1, 2, 6 and 12 are novel compounds having glucitol stereochemistry. Compound 11 is likewise novel and it has the iditol stereochemistry.
as §1

β-Glycosidase = experiment: Inhibition of lactose activity (β-glycosidase); assay type: biochemical, almonds
Procedure: as §1

HIV-1 = experiment: Anti-HIV-1 activity in MT-4 cells; assay type: cell-based; settings: for HIV1/HIV2 Act. (HIV1): Table 1, MT-4 cells, viable cells after five days; for inhibited the growth of HIV-1: at high concentrations
Procedure: Anti-HIV-1 activity was tested in MT-4 cells as described previously (Pauwels et al. J. Virol Methods 1987, 11, 171). The cells were either infected with HIV-1 or mock infected and incubated in the presence of the test compounds. The number of viable cells was then determined after five days (Pauwels et al. J. Virol Methods 1988, 20, 309).

HIV2 = experiment: Anti-HIV-2 activity; assay type: cell-based; settings: Table 1
Sucrase = target: T1, Sucrase (Oryctolagus cuniculus, UniProt P07768); experiment: Inhibition of sucrase (α-glycosidase); assay type: biochemical, rabbit; settings: at 100 mM (Table 1 head)
T1 construct: Partially purified α-glycosidase was isolated from the rabbit's small intestine; from tissue; host or cells: rabbit small intestine, partially purified
Procedure: […] In addition compounds 1 and 2 were screened at a dose of 1 mM. These compounds are described in Examples 6, 81 10, 11 and 12.
as §1

T1 sequence (P07768 1008-1827 limits assumed): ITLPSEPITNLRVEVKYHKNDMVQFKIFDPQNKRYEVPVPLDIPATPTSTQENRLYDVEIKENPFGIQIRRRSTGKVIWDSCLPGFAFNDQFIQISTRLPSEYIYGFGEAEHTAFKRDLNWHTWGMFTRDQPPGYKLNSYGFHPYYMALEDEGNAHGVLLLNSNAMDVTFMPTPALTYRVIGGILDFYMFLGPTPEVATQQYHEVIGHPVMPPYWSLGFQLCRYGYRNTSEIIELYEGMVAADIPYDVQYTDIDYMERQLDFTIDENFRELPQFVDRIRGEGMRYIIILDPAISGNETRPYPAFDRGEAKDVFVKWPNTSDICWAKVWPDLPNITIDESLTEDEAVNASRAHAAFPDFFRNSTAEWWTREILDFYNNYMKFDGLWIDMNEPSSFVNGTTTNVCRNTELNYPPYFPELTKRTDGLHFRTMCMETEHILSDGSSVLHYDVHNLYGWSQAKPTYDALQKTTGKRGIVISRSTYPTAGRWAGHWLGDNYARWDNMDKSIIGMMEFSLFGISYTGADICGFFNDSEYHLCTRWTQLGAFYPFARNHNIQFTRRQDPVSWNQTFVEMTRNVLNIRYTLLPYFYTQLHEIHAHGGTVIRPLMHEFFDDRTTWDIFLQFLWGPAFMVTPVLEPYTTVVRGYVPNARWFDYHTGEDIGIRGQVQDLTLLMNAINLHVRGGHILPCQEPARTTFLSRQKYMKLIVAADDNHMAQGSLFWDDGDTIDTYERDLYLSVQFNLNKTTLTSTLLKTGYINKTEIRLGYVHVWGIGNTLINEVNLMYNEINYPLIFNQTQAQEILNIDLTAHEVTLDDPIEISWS
T1 sequence (P07768 2-1007 partner limits assumed): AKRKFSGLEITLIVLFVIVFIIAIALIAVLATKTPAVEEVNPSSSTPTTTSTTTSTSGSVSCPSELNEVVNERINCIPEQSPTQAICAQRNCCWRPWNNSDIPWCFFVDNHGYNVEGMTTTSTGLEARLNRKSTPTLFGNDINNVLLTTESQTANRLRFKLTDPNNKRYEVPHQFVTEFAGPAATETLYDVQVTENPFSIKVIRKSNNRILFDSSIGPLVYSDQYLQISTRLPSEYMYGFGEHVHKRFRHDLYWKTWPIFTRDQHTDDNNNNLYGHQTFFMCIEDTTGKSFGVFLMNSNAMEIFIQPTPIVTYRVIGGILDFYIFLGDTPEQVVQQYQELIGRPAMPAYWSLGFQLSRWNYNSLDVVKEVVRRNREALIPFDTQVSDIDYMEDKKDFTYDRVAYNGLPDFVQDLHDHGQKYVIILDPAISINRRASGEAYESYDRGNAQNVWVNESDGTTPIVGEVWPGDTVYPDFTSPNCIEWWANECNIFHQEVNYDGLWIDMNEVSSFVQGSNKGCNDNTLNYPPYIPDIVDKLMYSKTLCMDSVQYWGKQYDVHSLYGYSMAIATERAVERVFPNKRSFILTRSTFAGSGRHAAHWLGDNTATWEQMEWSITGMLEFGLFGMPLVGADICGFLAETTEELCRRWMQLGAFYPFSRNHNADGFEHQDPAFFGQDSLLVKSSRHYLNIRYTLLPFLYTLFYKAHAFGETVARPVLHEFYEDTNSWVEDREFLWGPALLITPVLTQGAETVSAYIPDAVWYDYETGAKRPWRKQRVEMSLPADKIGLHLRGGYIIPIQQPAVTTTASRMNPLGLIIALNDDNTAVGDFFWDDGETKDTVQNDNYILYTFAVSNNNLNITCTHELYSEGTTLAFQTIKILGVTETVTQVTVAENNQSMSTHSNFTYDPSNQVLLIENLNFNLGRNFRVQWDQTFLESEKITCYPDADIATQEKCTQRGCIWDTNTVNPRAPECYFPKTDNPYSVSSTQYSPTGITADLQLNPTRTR

Molecule | glycosidase inhibition (in words) (glycosidase) | Inh. of Maltase (Maltase) [%] | HIV1/HIV2 Act. (HIV1) (HIV-1) | also measured
OC[C@@H]1[C@@H](O)[C@H](O)[C@H](CO)N1C(c1ccccc1)c1ccccc1 [Compound 1] | glycosidase inhibitors | 0 | Weak anti-HIV1 act. | inhibition of maltase (Maltase; at 10^-3 M (footnote 1)): 40%; inhibition of lactose activity (β-Glycosidase; at 10^-4 M, pH 5 (footnote 1)): 58%; inhibited the growth of HIV-1 (HIV-1): inhibited the growth of HIV-1 at high concentrations
OC[C@@H]1N[C@H](CO)[C@@H](O)[C@@H]1O [Compound 2, 2,5-Anhydro-2,5-imino-D-glucitol] | glycosidase inhibitors | 0 | No anti-HIV1 act. | inhibition of lactose activity (β-Glycosidase; at 10^-3 M, pH 5 (footnote 2)): 44%
OC[C@@H]1[C@@H](O)[C@H](O)[C@@H](CO)N1C(c1ccccc1)c1ccccc1 [Compound 3, N-Benzhydryl-2,5-anhydro-2,5-imino-D-mannitol] |  | 0 | No anti-HIV1 act. | 
OCC1[C@@H](O)[C@H](O)C(CO)N1CCCOc1ccc(F)cc1 (some centres unmarked) [Compound 8] |  | 0 | No anti-HIV1 act. | 
OC[C@@H]1[C@@H](O)[C@H](O)[C@H](CO)N1c1ccc(F)cc1 [Compound 9, N-(4-Fluorophenyl)-2,5-anhydro-2,5-imino-D-glucitol] |  | 0 | No anti-HIV1 act. | 
OC[C@@H]1[C@@H](O)[C@H](O)[C@@H](CO)N1c1ccc(F)cc1 [Compound 10] |  | 0 | No anti-HIV1 act. | 
OC[C@H]1[C@@H](O)[C@H](O)[C@H](CO)N1c1ccc(F)cc1 [Compound 11] | glycosidase inhibitors | 19 | No anti-HIV1 act. | 
OC[C@@H]1[C@@H](O)[C@H](O)[C@H](CO)N1CCCC(c1ccc(F)cc1)c1ccc(F)cc1 [Compound 12, N-[4,4-bis(4-Fluorophenyl)butyl]-2,5-anhydro-2,5-imino-D-glucitol tosylate] | glycosidase inhibitors | 20 | Weak anti-HIV1 act. | inhibited the growth of HIV-1 (HIV-1): inhibited the growth of HIV-1 at high concentrations
CCOC(=O)N1CCC(N2C(CO)[C@@H](O)[C@H](O)C2CO)CC1 (some centres unmarked) [Compound 13] |  | 0 | No anti-HIV1 act. | 
OCCCN1C(CO)[C@@H](O)[C@H](O)C1CO (some centres unmarked) [Compound 15] |  | 0 |  | 
CCCCN1[C@H](CO)[C@@H](O)[C@H](O)[C@@H]1CO [Compound 16] |  | 0 |  | 
OCC1[C@@H](O)[C@H](O)C(CO)N1CCc1ccc(F)cc1 (some centres unmarked) [Compound 17] |  |  | No anti-HIV1 act. | 
COC1CN(CCCOc2ccc(F)cc2)CCC1N1C(CO)[C@@H](O)[C@H](O)[C@H]1CO (some centres unmarked) [Compound 22] |  | 0 | No anti-HIV1 act. | 
N-Stearyl-2,5-anhydro-2,5-imino-D-glucitol [Compound 6] | glycosidase inhibitors | 1 | Weak anti-HIV1 and HIV2 | inhibited the growth of HIV-1 (HIV-1): inhibited the growth of HIV-1 at high concentrations; HIV1/HIV2 Act. (HIV2) (HIV2): Weak anti-HIV1 and HIV2; Inh. of (Sucrase) (Sucrase): 6%
